Assay results: ChEMBL document CHEMBL5055644, “Cysteine derivatives as acetyl lysine mimics to inhibit zinc-dependent histone deacetylases for treating cancer” (Eur J Med Chem, 2021)

Biological target: Histone deacetylase (Homo sapiens) (UniProt Q13547+O15379+Q9UBN7+Q92769+Q9UQL6+Q8WUI4+Q9BY41+Q96DB2+P56524+Q9UKV0+Q969S8)
Experiment: Inhibition of HDAC in human HeLa nuclear extract at 1 uM using Boc-Lys(acetyl)-AMC as fluorogenic substrate measured after 1 hr by flourescence plate reader method relative to control
Type: subcellular
Details: Nucleus

Compound: O=C(CCCSC[C@H](NS(=O)(=O)c1cccc(F)c1)C(=O)N[C@@H](Cc1c[nH]c2ccccc12)C(=O)NC1CCC1)NO
- inhibition: 82%
